Measured values taken from PubChem BioAssay (NCI).
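Interpolation was linear, between the two tested concentrations surrounding the appropriate level; five concentrations were tested over 48 hours in 96-well plates. Definition used: TGI = concentration required for complete inhibition of growth.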

Key:
Assay in all cases: NCI tumour cell line growth inhibition, 48 h
NCI-H460 lung = test system: NCI-H460 lung
DU-145 prostate = test system: DU-145 prostate
HCT-116 colon = test system: HCT-116 colon
RPMI-8226 leukemia = test system: RPMI-8226 leukemia
SF-539 CNS = test system: SF-539 CNS
SN12C renal = test system: SN12C renal
NCI-H522 lung = test system: NCI-H522 lung
KM12 colon = test system: KM12 colon
MALME-3M melanoma = test system: MALME-3M melanoma
T-47D breast = test system: T-47D breast
HCC-2998 colon = test system: HCC-2998 colon
UO-31 renal = test system: UO-31 renal
COLO 205 colon = test system: COLO 205 colon
NCI/ADR-RES ovarian = test system: NCI/ADR-RES ovarian
U251 CNS = test system: U251 CNS
M14 melanoma = test system: M14 melanoma
SW-620 colon = test system: SW-620 colon
UACC-257 melanoma = test system: UACC-257 melanoma
SR leukemia = test system: SR leukemia
MDA-N = test system: MDA-N
SK-OV-3 ovarian = test system: SK-OV-3 ovarian
K-562 leukemia = test system: K-562 leukemia
SK-MEL-2 melanoma = test system: SK-MEL-2 melanoma
HOP-92 NSCLC = test system: HOP-92 NSCLC
TK-10 renal = test system: TK-10 renal
OVCAR-5 ovarian = test system: OVCAR-5 ovarian
UACC-62 melanoma = test system: UACC-62 melanoma
SNB-19 CNS = test system: SNB-19 CNS
LOX IMVI melanoma = test system: LOX IMVI melanoma
EKVX NSCLC = test system: EKVX NSCLC
SK-MEL-28 melanoma = test system: SK-MEL-28 melanoma
786-0 renal = test system: 786-0 renal
NCI-H226 lung = test system: NCI-H226 lung
MOLT-4 leukemia = test system: MOLT-4 leukemia
OVCAR-8 ovarian = test system: OVCAR-8 ovarian
CAKI-1 renal = test system: CAKI-1 renal
MDA-MB-231 breast = test system: MDA-MB-231 breast
ACHN renal = test system: ACHN renal
SF-295 CNS = test system: SF-295 CNS
OVCAR-4 ovarian = test system: OVCAR-4 ovarian
PC-3 prostate = test system: PC-3 prostate
HT29 colon = test system: HT29 colon
BT-549 breast = test system: BT-549 breast
RXF 393 renal = test system: RXF 393 renal
HCT-15 colon = test system: HCT-15 colon
HL-60(TB) leukemia = test system: HL-60(TB) leukemia
MDA-MB-435 = test system: MDA-MB-435
CCRF-CEM leukemia = test system: CCRF-CEM leukemia
IGROV1 ovarian = test system: IGROV1 ovarian
A549 NSCLC = test system: A549 NSCLC
OVCAR-3 ovarian = test system: OVCAR-3 ovarian
HOP-62 NSCLC = test system: HOP-62 NSCLC
NCI-H23 lung = test system: NCI-H23 lung
HS 578T breast = test system: HS 578T breast
SK-MEL-5 melanoma = test system: SK-MEL-5 melanoma
MCF7 breast = test system: MCF7 breast
SF-268 CNS = test system: SF-268 CNS
SNB-75 CNS = test system: SNB-75 CNS
A498 renal = test system: A498 renal

Structure (SMILES): CC(=O)OCCCC(NC(=O)OC(C)(C)C)C(=O)NC(CCCOC(C)=O)C(=O)NC(Cc1ccc([N+](=O)[O-])cc1)C(=O)NCC(=O)OCc1ccccc1 (stereo not given)
- TGI (NCI-H460 lung): 29.5 µM
- TGI (DU-145 prostate): 32.7 µM
- TGI (HCT-116 colon): 32.4 µM
- TGI (RPMI-8226 leukemia): 44.6 µM
- TGI (SF-539 CNS): 28.9 µM
- TGI (SN12C renal): 31.6 µM
- TGI (NCI-H522 lung): 32.3 µM
- TGI (KM12 colon): 29 µM
- TGI (MALME-3M melanoma): 34.4 µM
- TGI (T-47D breast): 33.5 µM
- TGI (HCC-2998 colon): 33.4 µM
- TGI (UO-31 renal): 30 µM
- TGI (COLO 205 colon): 31.4 µM
- TGI (NCI/ADR-RES ovarian): 41.8 µM
- TGI (U251 CNS): 32.8 µM
- TGI (M14 melanoma): 25.6 µM
- TGI (SW-620 colon): 31.1 µM
- TGI (UACC-257 melanoma): 28.6 µM
- TGI (SR leukemia): 44.6 µM
- TGI (MDA-N): 28.6 µM
- TGI (SK-OV-3 ovarian): 57.6 µM
- TGI (K-562 leukemia): 96 µM
- TGI (SK-MEL-2 melanoma): 29.1 µM
- TGI (HOP-92 NSCLC): 42.1 µM
- TGI (TK-10 renal): 43.3 µM
- TGI (OVCAR-5 ovarian): 31.4 µM
- TGI (UACC-62 melanoma): 29 µM
- TGI (SNB-19 CNS): 32.9 µM
- TGI (LOX IMVI melanoma): 25.9 µM
- TGI (EKVX NSCLC): 33.3 µM
- TGI (SK-MEL-28 melanoma): 31.9 µM
- TGI (786-0 renal): 31.9 µM
- TGI (NCI-H226 lung): 31.3 µM
- TGI (MOLT-4 leukemia): > 100 µM
- TGI (OVCAR-8 ovarian): 31 µM
- TGI (CAKI-1 renal): 34.5 µM
- TGI (MDA-MB-231 breast): 27.3 µM
- TGI (ACHN renal): 31.5 µM
- TGI (SF-295 CNS): 24.4 µM
- TGI (OVCAR-4 ovarian): 28.8 µM
- TGI (PC-3 prostate): 30.9 µM
- TGI (HT29 colon): 31.9 µM
- TGI (BT-549 breast): 32.6 µM
- TGI (RXF 393 renal): 31.1 µM
- TGI (HCT-15 colon): 30.2 µM
- TGI (HL-60(TB) leukemia): 19.5 µM
- TGI (MDA-MB-435): 31.1 µM
- TGI (CCRF-CEM leukemia): > 100 µM
- TGI (IGROV1 ovarian): 34 µM
- TGI (A549 NSCLC): 38.8 µM
- TGI (OVCAR-3 ovarian): 30.1 µM
- TGI (HOP-62 NSCLC): 34.8 µM
- TGI (NCI-H23 lung): 27.3 µM
- TGI (HS 578T breast): 32.8 µM
- TGI (SK-MEL-5 melanoma): 30.1 µM
- TGI (MCF7 breast): 32.2 µM
- TGI (SF-268 CNS): 35.6 µM

Structure (SMILES): COc1ccc(/C=C2\NC(=S)N(/C=C3\C(=O)Oc4ccccc4C3=O)C2=O)cc1OC
- TGI (NCI-H460 lung): > 100 µM
- TGI (DU-145 prostate): > 100 µM
- TGI (HCT-116 colon): > 100 µM
- TGI (RPMI-8226 leukemia): > 100 µM
- TGI (SF-539 CNS): > 100 µM
- TGI (SNB-75 CNS): > 100 µM
- TGI (SN12C renal): > 100 µM
- TGI (NCI-H522 lung): > 100 µM
- TGI (KM12 colon): > 100 µM
- TGI (T-47D breast): > 100 µM
- TGI (HCC-2998 colon): > 100 µM
- TGI (UO-31 renal): > 100 µM
- TGI (COLO 205 colon): > 100 µM
- TGI (NCI/ADR-RES ovarian): > 100 µM
- TGI (U251 CNS): > 100 µM
- TGI (M14 melanoma): > 100 µM
- TGI (SW-620 colon): > 100 µM
- TGI (UACC-257 melanoma): > 100 µM
- TGI (MDA-N): > 100 µM
- TGI (SK-OV-3 ovarian): > 100 µM
- TGI (K-562 leukemia): > 100 µM
- TGI (A498 renal): > 100 µM
- TGI (SK-MEL-2 melanoma): > 100 µM
- TGI (HOP-92 NSCLC): > 100 µM
- TGI (TK-10 renal): > 100 µM
- TGI (OVCAR-5 ovarian): > 100 µM
- TGI (UACC-62 melanoma): > 100 µM
- TGI (SNB-19 CNS): > 100 µM
- TGI (LOX IMVI melanoma): > 100 µM
- TGI (EKVX NSCLC): > 100 µM
- TGI (786-0 renal): > 100 µM
- TGI (NCI-H226 lung): > 100 µM
- TGI (MOLT-4 leukemia): > 100 µM
- TGI (OVCAR-8 ovarian): > 100 µM
- TGI (CAKI-1 renal): > 100 µM
- TGI (MDA-MB-231 breast): > 100 µM
- TGI (ACHN renal): > 100 µM
- TGI (SF-295 CNS): > 100 µM
- TGI (OVCAR-4 ovarian): > 100 µM
- TGI (PC-3 prostate): > 100 µM
- TGI (HT29 colon): > 100 µM
- TGI (BT-549 breast): > 100 µM
- TGI (RXF 393 renal): > 100 µM
- TGI (HCT-15 colon): > 100 µM
- TGI (HL-60(TB) leukemia): > 100 µM
- TGI (MDA-MB-435): > 100 µM
- TGI (CCRF-CEM leukemia): > 100 µM
- TGI (IGROV1 ovarian): > 100 µM
- TGI (A549 NSCLC): > 100 µM
- TGI (OVCAR-3 ovarian): > 100 µM
- TGI (HOP-62 NSCLC): > 100 µM
- TGI (NCI-H23 lung): > 100 µM
- TGI (HS 578T breast): > 100 µM
- TGI (SK-MEL-5 melanoma): > 100 µM
- TGI (MCF7 breast): > 100 µM
- TGI (SF-268 CNS): > 100 µM

Structure (SMILES): Cc1cc2c(cc1Cl)SC(NNC(=O)c1ccco1)=NS2(=O)=O
- TGI (NCI-H460 lung): > 10 µM
- TGI (DU-145 prostate): > 10 µM
- TGI (HCT-116 colon): > 10 µM
- TGI (RPMI-8226 leukemia): > 10 µM
- TGI (SF-539 CNS): > 10 µM
- TGI (SNB-75 CNS): > 10 µM
- TGI (SN12C renal): > 10 µM
- TGI (NCI-H522 lung): > 10 µM
- TGI (KM12 colon): > 10 µM
- TGI (MALME-3M melanoma): > 10 µM
- TGI (T-47D breast): > 10 µM
- TGI (HCC-2998 colon): > 10 µM
- TGI (UO-31 renal): > 10 µM
- TGI (COLO 205 colon): > 10 µM
- TGI (NCI/ADR-RES ovarian): > 10 µM
- TGI (U251 CNS): > 10 µM
- TGI (M14 melanoma): > 10 µM
- TGI (SW-620 colon): > 10 µM
- TGI (UACC-257 melanoma): > 10 µM
- TGI (MDA-N): > 10 µM
- TGI (SK-OV-3 ovarian): > 10 µM
- TGI (K-562 leukemia): > 10 µM
- TGI (A498 renal): > 10 µM
- TGI (SK-MEL-2 melanoma): > 10 µM
- TGI (TK-10 renal): > 10 µM
- TGI (OVCAR-5 ovarian): > 10 µM
- TGI (UACC-62 melanoma): > 10 µM
- TGI (SNB-19 CNS): > 10 µM
- TGI (LOX IMVI melanoma): > 10 µM
- TGI (EKVX NSCLC): > 10 µM
- TGI (SK-MEL-28 melanoma): > 10 µM
- TGI (786-0 renal): > 10 µM
- TGI (NCI-H226 lung): > 10 µM
- TGI (MOLT-4 leukemia): > 10 µM
- TGI (OVCAR-8 ovarian): > 10 µM
- TGI (CAKI-1 renal): > 10 µM
- TGI (MDA-MB-231 breast): > 10 µM
- TGI (ACHN renal): > 10 µM
- TGI (SF-295 CNS): > 10 µM
- TGI (OVCAR-4 ovarian): > 10 µM
- TGI (PC-3 prostate): > 10 µM
- TGI (HT29 colon): > 10 µM
- TGI (BT-549 breast): > 10 µM
- TGI (RXF 393 renal): > 10 µM
- TGI (HCT-15 colon): > 10 µM
- TGI (HL-60(TB) leukemia): > 10 µM
- TGI (MDA-MB-435): > 10 µM
- TGI (CCRF-CEM leukemia): > 10 µM
- TGI (IGROV1 ovarian): > 10 µM
- TGI (A549 NSCLC): > 10 µM
- TGI (OVCAR-3 ovarian): > 10 µM
- TGI (HOP-62 NSCLC): > 10 µM
- TGI (NCI-H23 lung): > 10 µM
- TGI (HS 578T breast): > 10 µM
- TGI (SK-MEL-5 melanoma): > 10 µM
- TGI (MCF7 breast): > 10 µM
- TGI (SF-268 CNS): > 10 µM
